Results published in patent US20240342179A1, “TREATMENT OF CANCERS OR NEOPLASMS BY INHIBITING KIF15” (University of Kansas, priority 2023, published 2024).

Tests used:
[1] = target: KIF15 (Homo sapiens (Human), UniProt Q9NS87); settings: read-out: median inhibitory concentration; cited from earlier work
[2] = target: KIF11 (Homo sapiens (Human), UniProt P52732); settings: b18, cited from earlier work
[3] = system: ovarian cancer cell lines; test: cells; settings: 72 h, read-out: IC50 cell viability
[4] = system: HIO-80, HIO-118, FT190, FT194; test: CellTiter Glo cell viability, immortalized non-tumorigenic cell lines; format: cell-based; settings: control cell lines, 72 hours
[5] = system: ovarian cancer cell lines; settings: 72 h

KIF11, sequence (P52732 whole entry): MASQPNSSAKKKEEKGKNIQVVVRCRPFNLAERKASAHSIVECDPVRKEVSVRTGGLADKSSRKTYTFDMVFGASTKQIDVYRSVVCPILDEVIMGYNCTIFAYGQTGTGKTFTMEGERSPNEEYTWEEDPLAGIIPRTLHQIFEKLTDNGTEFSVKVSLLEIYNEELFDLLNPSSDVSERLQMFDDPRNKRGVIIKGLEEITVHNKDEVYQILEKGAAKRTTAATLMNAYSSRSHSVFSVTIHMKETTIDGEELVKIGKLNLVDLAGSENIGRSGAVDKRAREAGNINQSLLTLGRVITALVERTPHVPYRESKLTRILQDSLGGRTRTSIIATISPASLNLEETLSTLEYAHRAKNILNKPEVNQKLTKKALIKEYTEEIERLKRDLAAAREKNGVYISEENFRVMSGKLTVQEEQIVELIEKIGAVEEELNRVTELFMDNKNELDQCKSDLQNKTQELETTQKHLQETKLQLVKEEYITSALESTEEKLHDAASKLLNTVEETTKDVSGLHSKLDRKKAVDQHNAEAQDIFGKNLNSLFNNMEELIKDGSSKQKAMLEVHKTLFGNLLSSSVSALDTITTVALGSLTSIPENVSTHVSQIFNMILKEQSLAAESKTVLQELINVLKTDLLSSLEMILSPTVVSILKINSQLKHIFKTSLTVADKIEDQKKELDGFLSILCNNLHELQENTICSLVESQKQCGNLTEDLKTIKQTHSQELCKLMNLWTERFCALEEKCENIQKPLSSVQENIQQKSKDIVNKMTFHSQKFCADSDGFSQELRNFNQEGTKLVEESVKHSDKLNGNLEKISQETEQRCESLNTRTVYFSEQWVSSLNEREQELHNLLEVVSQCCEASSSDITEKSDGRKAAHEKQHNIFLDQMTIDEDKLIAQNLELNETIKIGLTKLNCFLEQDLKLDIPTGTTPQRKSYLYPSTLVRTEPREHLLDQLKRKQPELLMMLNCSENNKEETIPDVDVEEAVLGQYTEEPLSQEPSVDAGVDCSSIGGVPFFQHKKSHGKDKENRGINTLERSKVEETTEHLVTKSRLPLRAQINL
KIF15, sequence (Q9NS87 whole entry): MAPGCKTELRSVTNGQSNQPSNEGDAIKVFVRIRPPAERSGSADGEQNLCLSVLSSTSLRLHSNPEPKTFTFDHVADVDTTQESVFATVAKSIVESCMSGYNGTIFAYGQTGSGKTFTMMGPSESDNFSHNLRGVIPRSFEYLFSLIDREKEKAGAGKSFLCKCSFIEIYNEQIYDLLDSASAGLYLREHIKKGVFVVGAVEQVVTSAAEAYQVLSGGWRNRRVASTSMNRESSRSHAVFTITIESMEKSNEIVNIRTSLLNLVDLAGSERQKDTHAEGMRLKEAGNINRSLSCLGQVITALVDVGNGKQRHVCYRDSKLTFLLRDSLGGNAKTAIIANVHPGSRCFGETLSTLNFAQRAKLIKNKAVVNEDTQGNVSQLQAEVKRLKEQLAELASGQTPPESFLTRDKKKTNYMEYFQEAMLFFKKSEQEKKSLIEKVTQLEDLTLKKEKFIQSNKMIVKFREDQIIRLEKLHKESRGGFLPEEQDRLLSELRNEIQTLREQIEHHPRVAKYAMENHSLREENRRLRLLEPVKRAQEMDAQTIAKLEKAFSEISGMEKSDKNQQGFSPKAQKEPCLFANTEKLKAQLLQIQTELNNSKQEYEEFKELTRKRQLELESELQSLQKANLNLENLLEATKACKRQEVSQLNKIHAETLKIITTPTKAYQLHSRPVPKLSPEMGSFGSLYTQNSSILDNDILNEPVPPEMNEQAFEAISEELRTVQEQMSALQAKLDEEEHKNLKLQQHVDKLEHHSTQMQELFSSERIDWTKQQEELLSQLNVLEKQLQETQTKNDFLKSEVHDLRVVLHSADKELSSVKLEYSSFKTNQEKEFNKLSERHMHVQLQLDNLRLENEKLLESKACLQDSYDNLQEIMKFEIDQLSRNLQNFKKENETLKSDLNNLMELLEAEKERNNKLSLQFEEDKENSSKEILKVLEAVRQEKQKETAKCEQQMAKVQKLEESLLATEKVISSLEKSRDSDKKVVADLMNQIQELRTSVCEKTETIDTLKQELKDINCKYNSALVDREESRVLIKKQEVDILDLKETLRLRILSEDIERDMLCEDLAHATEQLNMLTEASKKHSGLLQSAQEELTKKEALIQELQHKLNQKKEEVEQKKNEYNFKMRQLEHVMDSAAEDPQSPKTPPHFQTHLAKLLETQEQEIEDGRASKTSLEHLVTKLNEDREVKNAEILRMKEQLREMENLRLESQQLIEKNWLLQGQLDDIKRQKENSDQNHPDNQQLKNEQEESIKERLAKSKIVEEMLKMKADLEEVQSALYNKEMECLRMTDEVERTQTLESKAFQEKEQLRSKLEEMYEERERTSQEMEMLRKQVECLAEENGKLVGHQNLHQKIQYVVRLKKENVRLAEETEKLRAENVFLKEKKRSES

Q: Which IC50 [1] does the source give for `O=C1Nc2ccc(C(=O)c3ccco3)cc2/C1=C/c1cc(Cl)c(O)c(Cl)c1` [GW108X] here?
A: 800 nM

Q: For `CON(C)C(=O)N1N=C(c2cc(F)ccc2F)S[C@@]1(CCCN)c1ccccc1` [filanesib], which Ki ([2]; read-out: K values) is on record?
A: 6 nM

Q: For `Cc1ccc(C(=O)N(CCCN)[C@@H](c2nc3cc(Cl)ccc3c(=O)n2Cc2ccccc2)C(C)C)cc1` [ispinesib], which IC50 [3] is on record?
A: 1.07 to 15.8 nM

Q: And the IC50 [4]?
A: 7.04 to 23.4 nM

Q: And the loss of viability [5]?
A: greater than 50%

Q: For `CCOC(=O)C1=C(C)NC(=S)NC1c1cccc(O)c1` (stereo not drawn) [monastrol], which “inhibit motor ATP hydrolysis” value [2] is on record?
A: 4.9 µM
